The numbers were not newly measured in publication PMC5356695, “A phase 1 study of oral ridaforolimus in pediatric patients with advanced solid tumors” (Oncotarget, 2016), which cites them from elsewhere.

For data set [1], the system named is pediatric patients with advanced solid tumors. Set-up: method as in PMID 27185573. The conditions noted are these: dalotuzumab alone; cited from earlier work.
The subject of data set [2] is children with recurrent or refractory solid tumors. Set-up: method as in PMID 21690471. The conditions noted are these: highest dose tested 150 mg/m^2, once weekly; cited from earlier work.
The test system of data set [3] is neuroblastoma and high-grade glioma. More on the design: method as in PMID 22033322. Particulars: single-agent therapy; cited from earlier work.
Data set [4] deals with in vivo solid tumor models. More on the design: method as in PMID 17635004. The conditions noted are these: cited from earlier work.
The subject of data set [5] is children with refractory solid tumors. More on the design: method as in PMID 17947729. The conditions noted are these: cited from earlier work.

“dalotuzumab: anti-IGF1R monoclonal antibody”: the “Patients with confirmed partial response” value in data set [1] is listed as 1 of 20.
`CO[C@H]1C[C@@H]2CC[C@@H](C)[C@@](O)(O2)C(=O)C(=O)N2CCCC[C@H]2C(=O)O[C@H]([C@H](C)C[C@@H]2CC[C@@H](OC(=O)C(C)(CO)CO)[C@H](OC)C2)CC(=O)[C@H](C)/C=C(\C)[C@@H](O)[C@@H](OC)C(=O)[C@H](C)C[C@H](C)/C=C/C=C/C=C/1C` [temsirolimus]: the “Patients with DLT (grade 3 anorexia)” value in data set [2] is 1 of 7. Moreover, in data set [3], the Disease stabilization entry is listed as “Prolonged stable disease was observed”.
On to `CO[C@H]1C[C@@H]2CC[C@@H](C)[C@@](O)(O2)C(=O)C(=O)N2CCCC[C@H]2C(=O)O[C@H]([C@H](C)C[C@@H]2CC[C@@H](O)[C@H](OC)C2)CC(=O)[C@H](C)/C=C(\C)[C@@H](O)[C@@H](OC)C(=O)[C@H](C)C[C@H](C)/C=C/C=C/C=C/1C` [rapamycin], for which the “Models with significant differences in event-free survival distributions compared with controls” value in data set [4] is recorded as 27 of 36.
On to `CO[C@H]1C[C@@H]2CC[C@@H](C)[C@@](O)(O2)C(=O)C(=O)N2CCCC[C@H]2C(=O)O[C@H]([C@H](C)C[C@@H]2CC[C@@H](OCCO)[C@H](OC)C2)CC(=O)[C@H](C)/C=C(\C)[C@@H](O)[C@@H](OC)C(=O)[C@H](C)C[C@H](C)/C=C/C=C/C=C/1C` [everolimus], for which the RP2D in data set [5] (children, oral) is reported as 5 mg/m^2. In addition, the “Patients with DLTs (grade 3 increased ALT, mucositis, diarrhea)” value in data set [5] (highest dose of 6.5 mg/m^2, oral) is reported as 3 of 3.
